Laboratory results: US20070021434A1, “NON-NUCLEOSIDE ANTI-HEPACIVIRUS AGENTS AND USES THEREOF” (Migenix Inc., priority 2005, published 2007)
Peptide text beside a SMILES is read from it. * marks the point of attachment. Fmoc = O=C(OCC1c2ccccc2-c2ccccc21)*; Boc = CC(C)(C)OC(=O)*

Molecular target: HCV RdRp (NS5B) (UniProt P26663)
Type: biochemical, hepatitis C virus

HCV RdRp (NS5B), sequence (P26663 whole entry, looked up): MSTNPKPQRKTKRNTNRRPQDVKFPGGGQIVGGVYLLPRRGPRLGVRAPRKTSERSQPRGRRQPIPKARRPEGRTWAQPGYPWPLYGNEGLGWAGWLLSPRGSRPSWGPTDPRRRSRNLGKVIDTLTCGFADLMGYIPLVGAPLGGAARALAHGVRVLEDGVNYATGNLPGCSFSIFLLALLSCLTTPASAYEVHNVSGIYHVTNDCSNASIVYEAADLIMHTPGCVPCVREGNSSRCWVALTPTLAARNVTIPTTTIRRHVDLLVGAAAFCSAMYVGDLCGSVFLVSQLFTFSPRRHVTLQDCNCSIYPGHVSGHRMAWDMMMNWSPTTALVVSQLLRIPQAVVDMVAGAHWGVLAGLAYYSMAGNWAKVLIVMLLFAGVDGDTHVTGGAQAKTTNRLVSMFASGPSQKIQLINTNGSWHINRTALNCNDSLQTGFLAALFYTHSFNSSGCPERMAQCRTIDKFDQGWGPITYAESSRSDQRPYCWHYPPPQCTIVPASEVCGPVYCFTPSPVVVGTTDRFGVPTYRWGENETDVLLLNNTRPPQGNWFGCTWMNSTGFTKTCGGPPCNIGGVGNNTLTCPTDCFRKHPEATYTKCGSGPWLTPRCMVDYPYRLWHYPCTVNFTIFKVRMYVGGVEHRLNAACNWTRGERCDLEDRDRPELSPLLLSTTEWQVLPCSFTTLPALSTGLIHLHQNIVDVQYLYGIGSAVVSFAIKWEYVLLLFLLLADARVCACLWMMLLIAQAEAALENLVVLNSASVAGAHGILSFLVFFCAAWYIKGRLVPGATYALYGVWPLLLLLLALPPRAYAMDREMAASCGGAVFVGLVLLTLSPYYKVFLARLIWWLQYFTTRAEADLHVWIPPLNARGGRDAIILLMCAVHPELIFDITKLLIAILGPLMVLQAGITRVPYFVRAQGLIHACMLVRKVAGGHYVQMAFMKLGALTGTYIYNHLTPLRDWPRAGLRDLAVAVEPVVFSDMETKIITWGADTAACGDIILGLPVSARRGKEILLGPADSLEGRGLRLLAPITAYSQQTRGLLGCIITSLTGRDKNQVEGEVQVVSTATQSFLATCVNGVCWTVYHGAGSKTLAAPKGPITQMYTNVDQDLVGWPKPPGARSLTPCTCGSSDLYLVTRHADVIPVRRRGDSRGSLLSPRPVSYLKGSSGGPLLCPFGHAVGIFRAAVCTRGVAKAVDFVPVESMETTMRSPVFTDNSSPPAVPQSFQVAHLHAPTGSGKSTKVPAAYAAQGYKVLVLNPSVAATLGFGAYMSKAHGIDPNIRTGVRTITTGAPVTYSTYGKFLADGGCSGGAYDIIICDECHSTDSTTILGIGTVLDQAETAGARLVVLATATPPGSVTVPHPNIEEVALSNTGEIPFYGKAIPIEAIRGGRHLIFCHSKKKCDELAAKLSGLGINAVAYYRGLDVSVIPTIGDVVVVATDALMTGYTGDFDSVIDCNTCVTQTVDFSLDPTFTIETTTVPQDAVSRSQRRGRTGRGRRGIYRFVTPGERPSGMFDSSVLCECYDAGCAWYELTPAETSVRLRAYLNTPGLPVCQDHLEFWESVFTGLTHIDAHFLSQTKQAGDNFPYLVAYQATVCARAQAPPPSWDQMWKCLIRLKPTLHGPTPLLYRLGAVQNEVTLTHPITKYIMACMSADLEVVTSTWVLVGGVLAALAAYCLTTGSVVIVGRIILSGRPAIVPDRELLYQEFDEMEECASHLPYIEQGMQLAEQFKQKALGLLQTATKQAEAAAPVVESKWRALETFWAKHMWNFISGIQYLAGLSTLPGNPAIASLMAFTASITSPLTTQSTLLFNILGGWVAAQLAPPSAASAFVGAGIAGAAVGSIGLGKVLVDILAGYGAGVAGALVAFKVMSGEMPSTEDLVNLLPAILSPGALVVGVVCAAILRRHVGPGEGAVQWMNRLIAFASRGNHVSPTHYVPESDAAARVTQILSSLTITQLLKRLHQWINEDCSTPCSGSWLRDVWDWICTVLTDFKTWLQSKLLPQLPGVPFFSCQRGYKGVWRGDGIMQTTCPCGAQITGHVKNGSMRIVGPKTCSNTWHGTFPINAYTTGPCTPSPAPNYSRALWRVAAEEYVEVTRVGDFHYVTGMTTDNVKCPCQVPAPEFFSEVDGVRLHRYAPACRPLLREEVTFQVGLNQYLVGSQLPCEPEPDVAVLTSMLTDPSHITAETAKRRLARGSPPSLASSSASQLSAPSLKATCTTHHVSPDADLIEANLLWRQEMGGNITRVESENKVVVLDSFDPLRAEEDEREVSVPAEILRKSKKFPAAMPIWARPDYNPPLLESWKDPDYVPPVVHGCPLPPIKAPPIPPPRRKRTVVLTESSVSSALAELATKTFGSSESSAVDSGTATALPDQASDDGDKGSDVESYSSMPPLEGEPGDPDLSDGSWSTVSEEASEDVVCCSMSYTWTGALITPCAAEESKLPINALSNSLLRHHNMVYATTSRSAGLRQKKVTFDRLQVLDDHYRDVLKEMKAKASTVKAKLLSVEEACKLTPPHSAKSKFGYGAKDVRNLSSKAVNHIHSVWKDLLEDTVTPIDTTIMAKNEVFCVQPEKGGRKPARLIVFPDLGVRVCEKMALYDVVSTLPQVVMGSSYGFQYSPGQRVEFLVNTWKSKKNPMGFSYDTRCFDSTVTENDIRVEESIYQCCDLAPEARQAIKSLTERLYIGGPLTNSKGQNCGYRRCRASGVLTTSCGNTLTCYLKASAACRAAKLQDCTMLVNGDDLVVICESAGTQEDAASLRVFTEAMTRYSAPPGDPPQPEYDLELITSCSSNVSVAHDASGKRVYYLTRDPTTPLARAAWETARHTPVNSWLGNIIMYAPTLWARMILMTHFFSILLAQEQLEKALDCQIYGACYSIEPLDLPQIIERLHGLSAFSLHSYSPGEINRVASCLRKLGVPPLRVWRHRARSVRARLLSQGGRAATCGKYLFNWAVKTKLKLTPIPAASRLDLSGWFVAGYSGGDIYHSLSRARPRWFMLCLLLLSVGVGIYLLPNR

Row | Compound | IC50 [µM]
1 | CCOC(=O)C=Cc1ccc(NC(=O)[C@H](CCCCN)NC(=O)OCC2c3ccccc3-c3ccccc32)cc1 [Compound 59, (S)-3-{4-[6-AMINO-2-((9H-FLUOREN-9-YLMETHOXYCARBONYL)AMINO)-HEXANOYLAMINO]PHENYL}-ACRYLIC ACID ETHYL ESTER] | 10 to 50
2 | Cc1ccc(NC(=O)C(CCCCN)NC(=O)NCCc2ccccc2)cc1 [Compound 134, (S)-6-AMINO-2-(3-PHENETHYL-UREIDO)-HEXANOIC ACID P-TOLYLAMIDE] | > 50
3 | Cc1ccc(NC(=O)C(CCCCN)NC(=O)CNCc2ccc(C(F)(F)F)cc2)cc1 [Compound 352, (S)-6-AMINO-2-[2-(4-TRIFLUOROMETHYL-BENZYLAMINO)-ACETYLAMINO]-HEXANOIC ACID P-TOLYLAMIDE] | > 50
4 | NCCCC[C@H](NC(=O)Nc1ccc(OCc2ccccc2)cc1)C(=O)N1CCCCC1 [Compound 290, (S)-1-[5-AMINO-1-(PIPERIDINE-1-CARBONYL)-PENTYL]-3-(4-BENZYLOXY-PHENYL)-UREA] | > 50
5 | CC(C)(C)Oc1ccc(C[C@H](N)C(=O)Nc2ccc(CN(C(=O)c3ccco3)C3CCCCC3)cc2)cc1 [Compound 8, (S)-FURAN-2-CARBOXYLIC ACID {4-[2-AMINO-3-(4-TERT-BUTOXY-PHENYL)-PROPIONYLAMINO]-BENZYL}-CYCLOHEXYL-AMIDE] | > 50
6 | CC(C)(C)c1ccc(NC(=O)[C@H](Cc2ccc(CN)cc2)NC(=O)Nc2ccc(-c3ccccc3)cc2)cc1 [Compound 150, (S)-3-(4-AMINOMETHYL-PHENYL)-2-(3-BIPHENYL-4-YL-UREIDO)-N-(4-TERT-BUTYL-PHENYL)-PROPIONAMIDE] | < 10
7 | Cc1ccc(NC(=O)C(NC(=O)OCC2c3ccccc3-c3ccccc32)C(C)O)cc1 [Compound 377, (2+/−,3R)-(2-HYDROXY-1-P-TOLYLCARBAMOYL-PROPYL)-CARBAMIC ACID 9H-FLUOREN-9-YLMETHYL ESTER] | > 50
8 | CCCCOc1ccc(S(=O)(=O)N[C@@H](CCCCN)C(=O)Nc2ccc(C)cc2)cc1 [Compound 390, (S)-6-AMINO-2-(4-BUTOXY-BENZENESULFONYLAMINO)-HEXANOIC ACID P-TOLYLAMIDE] | > 50
9 | Cc1ccc(NC(=O)[C@H](CCCCN)NC(=O)CNc2ccc(Cl)cc2)cc1 [Compound 363, (S)-6-AMINO-2-[2-(4-CHLORO-PHENYLAMINO)-ACETYLAMINO]-HEXANOIC ACID P-TOLYLAMIDE] | > 50
10 | Cc1ccc(NC(=O)C(CCCCN)NC(=O)C(N)Cc2c[nH]c3ccccc23)cc1 [Compound 100, (S,S)-6-AMINO-2-[2-AMINO-3-(1H-INDOL-3-YL)-PROPIONYLAMINO]-HEXANOIC ACID P-TOLYLAMIDE] | > 50
11 | COc1ccc(-c2ccccc2)cc1NC(=O)NC(CCCCN)C(=O)Nc1ccc(C)cc1 [Compound 93, (S)-6-AMINO-2-[3-(4-METHOXY-BIPHENYL-3-YL)-UREIDO]-HEXANOIC ACID P-TOLYLAMIDE] | > 50
12 | Cc1ccc(NC(=O)[C@H](CCCCN)NC(=O)Nc2ccc(OCc3ccc([N+](=O)[O-])cc3)cc2)cc1 [Compound 196, (S)-6-AMINO-2-{3-[4-(4-NITRO-BENZYLOXY)-PHENYL]-UREIDO}-HEXANOIC ACID P-TOLYLAMIDE] | 10 to 50
13 | Cc1ccc(NC(=O)C(CCCCN(C)C)NC(=O)OCC2c3ccccc3-c3ccccc32)cc1 [Compound 124, (S)-(5-DIMETHYLAMINO-1-P-TOLYLCARBAMOYL-PENTYL)-CARBAMIC ACID 9H-FLUOREN-9-YLMETHYL ESTER] | > 50
14 | Cc1ccc(NC(=O)[C@H](CCCCN)NC(=O)Nc2cccc3c2CCCC3)cc1 [Compound 78, (S)-6-AMINO-2-[3-(5,6,7,8-TETRAHYDRO-NAPHTHALEN-1-YL)-UREIDO]-HEXANOIC ACID P-TOLYLAMIDE] | > 50
15 | CC(C)(C)OC(=O)NCC(=O)NCc1ccccc1NC(=O)CNC(=O)OCC1c2ccccc2-c2ccccc21 [Compound 325, ({2-[2-(9H-FLUOREN-9-YLMETHOXYCARBONYLAMINO)-ACETYLAMINO]-BENZYLCARBAMOYL}-METHYL)-CARBAMIC ACID TERT-BUTYL ESTER] | > 50
16 | Cc1ccc(NC(=O)C(Cc2ccc(CN)cc2)NC(=O)OCC2c3ccccc3-c3ccccc32)cc1 [Compound 175, (R)-[2-(4-AMINOMETHYL-PHENYL)-1-P-TOLYLCARBAMOYL-ETHYL]-CARBAMIC ACID 9H-FLUOREN-9-YLMETHYL ESTER] | < 10
17 | Cc1ccc(NC(=O)C(CCCN)NC(=O)Nc2ccc(-c3ccccc3)cc2)cc1 [Compound 188, (S)-5-AMINO-2-(3-BIPHENYL-4-YL-UREIDO)-PENTANOIC ACID P-TOLYLAMIDE] | > 50
18 | NCCCC[C@H](NC(=O)OCC1c2ccccc2-c2ccccc21)C(=O)Nc1ccc(OCc2ccccc2)c(Cl)c1 [Compound 210, (S)-[5-AMINO-1-(4-BENZYLOXY-3-CHLORO-PHENYLCARBAMOYL)-PENTYL]-CARBAMIC ACID 9H-FLUOREN-9-YLMETHYL ESTER] | < 10
19 | Cc1ccc(NC(=O)C(CCCCN)NC(=O)c2c(C)ccc3ccccc23)cc1 [Compound 63, (S)-2-METHYL-NAPHTHALENE-1-CARBOXYLIC ACID (5-AMINO-1-P-TOLYLCARBAMOYL-PENTYL)-AMIDE] | > 50

Row | Compound | IC50 [µM]
20 | O=C(CC1CNCCN1C(=O)Nc1ccc2c(c1)Cc1ccccc1-2)Nc1ccc(C2CCCCC2)cc1 (centres unmarked) [Compound 162, 2-[(4-CYCLOHEXYL-PHENYLCARBAMOYL)-METHYL]-PIPERAZINE-1-CARBOXYLIC ACID (9H-FLUOREN-2-YL)-AMIDE] | 10 to 50
21 | Cc1ccc(NC(=O)[C@H](CCCCN)NC(=O)NS(=O)(=O)c2ccccc2)cc1 [Compound 99, (S)-6-AMINO-2-[PHENYLSULFONAMIDE-UREIDO]-HEXANOIC ACID P-TOLYLAMIDE] | > 50
22 | Cc1ccc(NC(=O)C2CCCN2C(=O)OCC2c3ccccc3-c3ccccc32)cc1 [Compound 85, (S)-2-P-TOLYLCARBAMOYL-PYRROLIDINE-1-CARBOXYLIC ACID 9H-FLUOREN-9-YLMETHYL ESTER] | > 50
23 | NCCCCCCNC(=O)C(NC(=O)Nc1ccc(OCc2ccccc2)cc1)c1ccccc1 [Compound 319, (S)-NR-(6-AMINO-HEXYL)-2-[3-(4-BENZYLOXY-PHENYL)-UREIDO]-2-PHENYL-ACETAMIDE] | < 10
24 | COC(=O)[C@H](Cc1c[nH]c2ccccc12)NC(=O)[C@H](CCCCNC(=O)OC(C)(C)C)NC(=O)OCC1c2ccccc2-c2ccccc21 [Compound 30, (S)-2-[6-TERT-BUTOXYCARBONYLAMINO-2-(S)-((9H-FLUOREN-9-YLMETHOXYCARBONYL)AMINO)-HEXANOYL-AMINO]-3-(1H-INDOL-3-YL)-PROPIONIC ACID METHYL ESTER] (Fmoc-Lys(Boc)-Trp-OMe) | > 50
25 | Cc1ccc(NC(=O)[C@H](CCCCN)NC(=O)Nc2ccc(OCc3ccc(Cl)cc3Cl)cc2)cc1 [Compound 274, (S)-6-AMINO-2-{3-[4-(2,4-DICHLORO-BENZYLOXY)-PHENYL]-UREIDO}-HEXANOIC ACID P-TOLYLAMIDE] | < 10
26 | Cc1cccc(NC(=O)[C@H](CCCCN)NC(=O)OCC2c3ccccc3-c3ccccc32)c1 [Compound 47, (S)-(5-AMINO-1-M-TOLYLCARBAMOYL-PENTYL)-CARBAMIC ACID 9H-FLUOREN-9-YLMETHYL ESTER] | > 50
27 | Cc1ccc(NC(=O)[C@H](CCCCN)NS(=O)(=O)c2ccc(C)cc2)cc1 [Compound 396, (S)-6-AMINO-2-(TOLUENE-4-SULFONYLAMINO)-HEXANOIC ACID P-TOLYLAMIDE] | > 50
28 | Cc1cc2cc(NC(=O)[C@H](CCCCNC(=O)CN)NC(=O)Nc3ccc(OCc4ccccc4)cc3)ccc2[nH]1 [Compound 239, (S)-6-(2-AMINO-ACETYLAMINO)-2-[3-(4-BENZYLOXY-PHENYL)-UREIDO]-HEXANOIC ACID (2-METHYL-1H-INDOL-5-YL)-AMIDE] | < 10
29 | Cc1ccc(NC(=O)C(CO)NC(=O)OCC2c3ccccc3-c3ccccc32)cc1 [Compound 375, (R)-(2-HYDROXY-1-P-TOLYLCARBAMOYL-ETHYL)-CARBAMIC ACID 9H-FLUOREN-9-YLMETHYL ESTER] | > 50
30 | Cc1ccc(NC(=O)C(CCCNC(=O)CN)NC(=O)OCC2c3ccccc3-c3ccccc32)cc1 [Compound 177, (S)-[4-(2-AMINO-ACETYLAMINO)-1-P-TOLYLCARBAMOYL-BUTYL]-CARBAMIC ACID 9H-FLUOREN-9-YLMETHYL ESTER] | < 10
31 | Cc1ccc(NC(=O)[C@H](CCCCN)NS(=O)(=O)c2ccc3ccccc3c2)cc1 [Compound 69, (S)-6-AMINO-2-(NAPHTHALENE-2-SULFONYLAMINO)-HEXANOIC ACID P-TOLYLAMIDE] | > 50
32 | O=C(CNC(=O)OCC1c2ccccc2-c2ccccc21)Nc1ccc(CN(C(=O)c2ccco2)C2CCCCC2)cc1 [Compound 18, [(4-{[CYCLOHEXYL-(FURAN-2-CARBONYL)-AMINO]-METHYL}-PHENYLCARBAMOYL)-METHYL]-CARBAMIC ACID 9H-FLUOREN-9-YLMETHYL ESTER] | > 50
33 | Cc1ccc(NC(=O)C(CCCCN)NC(=O)Nc2ccc(-c3ccccc3)cc2)cc1 [Compound 40, (S)-6-AMINO-2-(3-BIPHENYL-4-YL-UREIDO)-HEXANOIC ACID P-TOLYLAMIDE] | 10 to 50
34 | O=C(CC1CNCCN1C(=O)NCc1ccccc1)Nc1ccc(C2CCCCC2)cc1 (centres unmarked) [Compound 158, 2-[(4-CYCLOHEXYL-PHENYLCARBAMOYL)-METHYL]-PIPERAZINE-1-CARBOXYLIC ACID BENZYLAMIDE] | 10 to 50
35 | Cc1ccc(NC(=O)[C@H](CCCCN)NC(=O)Nc2ccc(OCc3cccnc3)cc2)cc1 [Compound 261, (S)-6-AMINO-2-{3-[4-(PYRIDIN-3-YLMETHOXY)-PHENYL]-UREIDO}-HEXANOIC ACID P-TOLYLAMIDE] | > 50
36 | CNCC(=O)NCCCC(NC(=O)OCC1c2ccccc2-c2ccccc21)C(=O)Nc1ccc(C)cc1 [Compound 223, (S)-[4-(2-METHYLAMINO-ACETYLAMINO)-1-P-TOLYLCARBAMOYL-BUTYL]-CARBAMIC ACID 9H-FLUOREN-9-YLMETHYL ESTER] | 10 to 50
37 | Cc1ccc(NC(=O)[C@H](CCCCN)NC(=O)CNCc2ccccc2)cc1 [Compound 337, (S)-6-AMINO-2-(2-BENZYLAMINO-ACETYLAMINO)-HEXANOIC ACID P-TOLYLAMIDE] | > 50
38 | Cc1ccc(NCC(=O)N[C@@H](CCCCN)C(=O)Nc2ccc(C)cc2)cc1 [Compound 356, (S)-6-AMINO-2-(2-P-TOLYLAMINO-ACETYLAMINO)-HEXANOIC ACID P-TOLYLAMIDE] | > 50
